Assay results from patent USRE49735E1 (BRISTOL-MYERS SQUIBB COMPANY, priority 2010, dated 2023).
“And” between values parts separate entries of the source, which are not always exact repeats. Equal values may be shown once.

These compounds were tested against human mGluR5A (Homo sapiens, UniProt P41594) (assay: mGluR5 FLIPR Assay). Settings: positive modulator activity; HEK293 (ZF) cells with human mGluR5A and rat GLAST; Ca++ response to ~EC10 glutamate.
Sequence of human mGluR5A (P41594 21-1180 isoform P41594-2): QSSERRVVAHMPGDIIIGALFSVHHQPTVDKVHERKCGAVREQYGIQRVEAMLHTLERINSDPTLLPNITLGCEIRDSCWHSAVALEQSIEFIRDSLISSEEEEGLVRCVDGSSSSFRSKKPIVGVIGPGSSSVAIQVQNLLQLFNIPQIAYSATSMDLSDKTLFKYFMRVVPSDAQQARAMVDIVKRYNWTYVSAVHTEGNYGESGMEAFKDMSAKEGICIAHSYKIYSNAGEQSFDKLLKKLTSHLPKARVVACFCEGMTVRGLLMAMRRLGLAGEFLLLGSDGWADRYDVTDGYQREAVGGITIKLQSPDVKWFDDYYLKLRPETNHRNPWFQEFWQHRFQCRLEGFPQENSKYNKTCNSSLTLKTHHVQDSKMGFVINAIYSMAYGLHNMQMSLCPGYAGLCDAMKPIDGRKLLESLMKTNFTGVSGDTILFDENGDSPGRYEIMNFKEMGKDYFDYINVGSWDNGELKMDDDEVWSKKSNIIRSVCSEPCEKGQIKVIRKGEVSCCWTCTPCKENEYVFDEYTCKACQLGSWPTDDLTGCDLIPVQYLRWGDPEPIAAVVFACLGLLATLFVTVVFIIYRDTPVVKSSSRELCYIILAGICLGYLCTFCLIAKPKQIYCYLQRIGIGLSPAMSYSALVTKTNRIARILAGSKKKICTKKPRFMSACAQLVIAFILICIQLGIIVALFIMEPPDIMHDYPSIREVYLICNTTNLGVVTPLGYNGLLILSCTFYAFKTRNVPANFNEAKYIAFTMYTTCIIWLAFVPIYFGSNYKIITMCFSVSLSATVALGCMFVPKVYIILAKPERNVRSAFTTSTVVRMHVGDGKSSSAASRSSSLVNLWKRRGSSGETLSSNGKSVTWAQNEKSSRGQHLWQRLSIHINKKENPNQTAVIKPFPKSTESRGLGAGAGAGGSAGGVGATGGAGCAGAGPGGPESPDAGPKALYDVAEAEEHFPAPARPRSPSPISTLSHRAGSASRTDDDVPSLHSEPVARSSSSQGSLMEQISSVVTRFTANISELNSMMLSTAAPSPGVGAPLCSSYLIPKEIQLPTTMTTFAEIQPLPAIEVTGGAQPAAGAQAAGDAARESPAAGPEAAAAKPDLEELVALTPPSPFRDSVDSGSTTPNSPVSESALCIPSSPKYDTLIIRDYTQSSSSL
Type: cell-based
O=C1N[C@@H](c2cc(C#Cc3ccccc3)ccn2)[C@H](c2ccccc2)O1 (single isomer, unassigned) [Example 19] was tested, and the EC50 was > 1000 nM. With COc1cccc([C@H]2OC(=O)N[C@@H]2c2cccc(C#Cc3ccnc(F)c3)c2)c1 [Example 73, (4R,5R)-4-(3-((2-Fluoropyridin-4-yl)ethynyl)phenyl)-5-(3-methoxyphenyl)oxazolidin-2-one] the EC50 was < 100 nM. In the case of O=C1N[C@H](c2ccnc(C#Cc3cccnc3)c2)[C@@H](c2ccccc2)O1 [Example 23, (4R,5R)-5-Phenyl-4-(2-(pyridin-3-ylethynyl)pyridin-4-yl)oxazolidin-2-one], the EC50 is reported as < 100 nM. O=C1N[C@H](c2cccc(C#Cc3ccccc3)c2)[C@@H](c2ccc(F)cc2)O1 (single isomer, unassigned) [Example 114] was tested, and the EC50 was < 100 nM. For CCOc1ncc(C#Cc2cccc([C@H]3NC(=O)O[C@@H]3c3cccc(OC)c3)c2)cn1 [Example 94, (4R,5R)-4-(3-((2-Ethoxypyrimidin-5-yl)ethynyl)phenyl)-5-(3-methoxyphenyl)oxazolidin-2-one], the EC50 was > 1000 nM. In the case of C[C@]1(c2cccc(C#Cc3ccccc3)n2)NC(=O)O[C@@H]1c1ccccc1F (single isomer, unassigned) [Example 378], the EC50 is reported as < 100 nM. In the case of O=C1N[C@H](c2cncc(C#Cc3ccccc3)c2)[C@@H](c2cccs2)O1 (single isomer, unassigned) [Example 346], the EC50 is reported as < 100 nM and 13.3 nM. In the case of COc1cccc([C@H]2OC(=O)N[C@@H]2c2cccc(C#Cc3ncc[nH]3)c2)c1 [Example 62, (4R,5R)-4-(3-((1H-imidazol-2-yl)ethnyl)phenyl)-5-(3-methoxyphenyl)oxazolidin-2-one], the EC50 is reported as > 1000 nM. For O=C1N[C@H](c2cccc(C#Cc3ccccc3)c2)[C@@H](c2ccccn2)O1 [Example 231], the EC50 was < 100 nM. With O=C1N[C@H](c2cccc(C#Cc3cccnc3)c2)[C@@H](c2ccncc2)O1 [Example 235] the EC50 was 100 to 1000 nM and 211 nM. For O=C1N[C@@H](c2cncc(C#Cc3cncc(F)c3)c2)[C@H](c2ccc(F)cc2)O1 (single isomer, unassigned) [Example 44], the EC50 was > 1000 nM. In the case of O=C1N[C@@H](c2cncc(C#Cc3ccccc3)c2)[C@@H](c2cc(Cl)ccc2Cl)O1 (single isomer, unassigned) [Example 328], the EC50 is reported as > 1000 nM. In the case of O=C1N[C@@H](c2cncc(C#Cc3ccccc3)c2)[C@H](c2cccc(Cl)c2)O1 (single isomer, unassigned) [Example 361], the EC50 is reported as > 1000 nM. In the case of O=C1N[C@H](c2ccnc(C#Cc3ccccc3)n2)[C@@H](c2cc(F)ccc2F)O1 (racemic) [Example 270], the EC50 is reported as > 1000 nM. In the case of COc1cccc([C@H]2OC(=O)N[C@@H]2c2cccc(C#Cc3cccnc3OC)c2)c1 [Example 78, (4R,5R)-5-(3-Methoxyphenyl)-4-(3-((2-methoxypyridin-3-yl)ethynyl)phenyl)oxazolidin-2-one], the EC50 is reported as > 1000 nM. With COc1ncc(C#Cc2ccccc2)cc1[C@H]1NC(=O)O[C@@H]1c1cc(F)ccc1F [Example 303, (4R,5R)-5-(2,5-Difluorophenyl)-4-(2-methoxy-5-(phenylethynyl)pyridin-3-yl)oxazolidin-2-one] the EC50 was > 1000 nM. O=C1N[C@H](c2cc(C#Cc3ccccc3)ncc2F)[C@@H](c2cc(F)ccc2F)O1 [Example 301, (4R,5R)-5-(2,5-Difluorophenyl)-4-(5-fluoro-2-(phenylethynyl)pyridin-4-yl)oxazolidin-2-one] was tested, and the EC50 was < 100 nM. COc1cccc([C@H]2OC(=O)N[C@@H]2c2cccc(C#Cc3cccc(OC(F)(F)F)c3)c2)c1 [Example 269] was tested, and the EC50 was > 1000 nM. With COc1cccc([C@H]2OC(=O)N[C@@H]2c2cccc(C#Cc3ccccc3C#N)c2)c1 [Example 90, 2-((3-((4R,5R)-5-(3-Methoxyphenyl)-2-oxooxazolidin-4-yl)phenyl)ethynyl)benzonitrile] the EC50 was > 1000 nM. For O=C1N[C@H](c2cncc(C#Cc3ccccc3)c2)[C@@H](c2ccnnc2)O1 (single isomer, unassigned) [Example 322], the EC50 was < 100 nM.
